Results: patent US20080039408A1, “Use of Oxypurinol as an Inhibitor of Anti-Neoplastic Agent-Induced Cardiotoxicity” (priority 2004, published 2008)
Structures can show the parent of a compound that is named as a salt.

Experiments:
[1] = tested on: laboratory animals; conditions: all laboratory animals tested; cited from earlier work
[2] = tested on: patients; conditions: 4-15 years after completion of chemotherapy; cited from earlier work
[3] = molecular target: xanthine oxidase (Homo sapiens, UniProt P47989); conditions: cited from earlier work
Chain of xanthine oxidase (P47989 whole entry, species assumed): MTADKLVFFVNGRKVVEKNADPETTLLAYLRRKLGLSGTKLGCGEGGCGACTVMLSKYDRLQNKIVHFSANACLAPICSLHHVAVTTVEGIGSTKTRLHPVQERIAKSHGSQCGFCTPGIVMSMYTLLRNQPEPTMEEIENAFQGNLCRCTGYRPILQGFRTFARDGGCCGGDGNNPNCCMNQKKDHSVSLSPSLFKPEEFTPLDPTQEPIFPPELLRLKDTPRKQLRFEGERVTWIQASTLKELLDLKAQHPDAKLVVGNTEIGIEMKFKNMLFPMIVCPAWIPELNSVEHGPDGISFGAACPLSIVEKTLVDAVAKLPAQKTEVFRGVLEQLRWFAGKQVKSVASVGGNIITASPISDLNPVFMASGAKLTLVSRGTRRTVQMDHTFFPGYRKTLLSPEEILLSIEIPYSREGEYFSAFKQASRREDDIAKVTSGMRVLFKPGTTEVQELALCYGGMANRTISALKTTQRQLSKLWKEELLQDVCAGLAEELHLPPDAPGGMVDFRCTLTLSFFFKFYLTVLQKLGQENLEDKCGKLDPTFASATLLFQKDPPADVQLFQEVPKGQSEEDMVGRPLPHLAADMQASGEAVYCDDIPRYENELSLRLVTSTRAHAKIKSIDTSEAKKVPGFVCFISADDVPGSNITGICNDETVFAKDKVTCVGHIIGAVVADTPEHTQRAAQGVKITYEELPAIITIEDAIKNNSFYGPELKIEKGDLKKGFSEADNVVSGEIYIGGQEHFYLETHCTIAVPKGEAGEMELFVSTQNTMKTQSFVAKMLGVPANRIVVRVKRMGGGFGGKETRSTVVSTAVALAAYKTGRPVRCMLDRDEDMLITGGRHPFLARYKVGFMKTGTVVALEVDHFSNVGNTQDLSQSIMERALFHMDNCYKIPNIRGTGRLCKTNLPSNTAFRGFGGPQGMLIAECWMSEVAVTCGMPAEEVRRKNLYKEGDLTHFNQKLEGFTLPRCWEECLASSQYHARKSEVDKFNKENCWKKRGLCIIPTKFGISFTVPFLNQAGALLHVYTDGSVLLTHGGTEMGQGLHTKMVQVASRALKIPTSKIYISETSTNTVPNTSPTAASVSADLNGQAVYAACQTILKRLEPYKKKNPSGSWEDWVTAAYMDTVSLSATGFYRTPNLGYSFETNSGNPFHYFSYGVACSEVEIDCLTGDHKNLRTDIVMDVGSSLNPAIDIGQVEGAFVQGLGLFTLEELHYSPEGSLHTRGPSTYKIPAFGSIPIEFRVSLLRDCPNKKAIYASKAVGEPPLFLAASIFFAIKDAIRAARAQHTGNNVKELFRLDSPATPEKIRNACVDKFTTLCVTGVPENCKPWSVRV

[4] = tested on: Female CD1 mice
Description: Female CD1 mice, weighing 20-22 g, were obtained from Charles River with implanted jugular catheters. Prior to induction of doxorubicin cardiotoxicity, the animals were randomly divided into 2 groups: • Group 1: Treatment with Oxypurinol (n=15), 26 mg/dl in the drinking water, start 3 days prior to doxorubicin dose and continue to sacrifice. • Group 2: Treatment with Vehicle (Saline) (n=10), start 3 days prior to doxorubicin dose and continue to sacrifice.
For induction of doxorubicin cardiotoxicity, doxorubicin, dissolved in saline, was injected by IV through the jugular catheter twice a week (Monday and Thursday) ten times at dose 4 mg/kg/day. Between doses 4 and 5 there was a two weeks hiatus to allow recovery of bone marrow suppression.
Seventeen mice were included in the vehicle Group 2. Two mice had jugular catheters that were nonoperable and excluded at the outset. Fifteen mice were included in the drug Group 1.
Seven surviving vehicle Group 2 (control) animals were sacrificed and 11 surviving drug Group 1 mice were sacrificed.

C[C@@H](CN1CC(=O)NC(=O)C1)N1CC(=O)NC(=O)C1 [dexrazoxane]
chronic cardiotoxicity in laboratory animals [1]: prevents chronic cardiotoxicity

COc1cccc2c1C(=O)c1c(O)c3c(c(O)c1C2=O)C[C@@](O)(C(=O)CO)C[C@@H]3O[C@H]1C[C@H](N)[C@H](O)[C@H](C)O1 [doxorubicin, 14-hydroxydaunomycin]
late onset chronic cardiac events, share of patients [2]: 18-65%

Oc1ncnc2[nH]ncc12 [allopurinol, 1,5-dihydro4H-pyrazolol[3,4-d}pyrimidin-4-one monosodium salt, reference compound]
immediate inhibition of superoxide radical production [3]: very little immediate inhibition

O=c1[nH]c(=O)c2c[nH]nc2[nH]1 [oxypurinol]
immediate inhibition of superoxide radical production [3]: produces immediate inhibition | cellular necrosis score, difference vs vehicle ([4]; histology of surviving mice sacrificed prior to dose 4 of doxorubicin): not statistically significant | mean cellular swelling score ([4]; histology of surviving mice sacrificed prior to dose 4 of doxorubicin, 11 mice, p=0.004 vs vehicle): 1.8±0.4 | deaths following 3 doses of doxorubicin ([4]; oxypurinol 26 mg/dl in drinking water from 3 days before doxorubicin, doxorubicin 4 mg/kg/day IV twice a week, 15 mice in group): 3 deaths | mortality vs vehicle group ([4]; oxypurinol Group 1 vs vehicle Group 2, doxorubicin-treated mice): highly significant decrease in mortality
